Experimental data published in patent publication US5206241A, “Labdanes and process for their preparation” (Hoechst Aktiengesellschaft, priority 1990, dated 1993).
In brackets after ≈: the same amount, converted by molar mass. Structures can show the parent of a compound that is named as a salt.

How the values were obtained:
Guinea pig atrium = test: Positive inotropic activity, electrically stimulated isolated guinea pig atrium; settings: contractility of isolated atrium, Ringer's solution, 32° C., recorded 7 to 10 minutes; for EC50: Cavia porcellus
Method: Guinea pigs of both sexes and weighing 400 g are sacrificed, and the heart is removed and placed in Ringer's solution at room temperature. Both the left and the right atria are then isolated, fixed in an organ holder and placed in a bath containing Ringer's solution and maintained at a temperature of 32° C. A mixture of 95% O2 and 5% CO2 is bubbled through the organ bath. Electrical stimulation of the atrium is then carried out. A compound according to the invention is dissolved in water to give a solution of known concentration and is added to the bath. The contractility of the atrium is recorded for 7 to 10 minutes via an […] strain gage on a Nihon Kohden 4-channel pen recorder. The activity is expressed on the basis of the resulting data as the EC50.
Data for compounds disclosed in Indian Patent No. 163 242 are also provided for comparison.

[1] = tested on: intraocular pressure (IOP) in conscious rabbits; test: Measurement of the intraocular pressure in conscious rabbits; assay type: in vivo, rabbit; settings: 2% solution, 100 μl into one eye; for IOP-Lowering Effect, % decrease in IOP: Schioetz tonometer, relative to initial value; for IOP-Lowering Effect, Duration: unit of duration not given
Method: For this experiment rabbits of both sexes and weighin 2 to 3 kg are used. The intraocular pressure (IOP) is measured with a Schioetz tonometer after corneal anaesthesia with a 2% novocaine solution. A 2% solution of a compound according to the invention is prepared, using the stoichiometric amount of 0.1N HCl, by dissolving it or its salt directly in water. After the initial value has been determined, 100 μl of the solution of the test compound are […] into one of the eyes, and the vehicle is instilled into the other eye. The IOP is measured at defined time intervals, i.e. 0.5, 1, 2, 3, 4 and 5 hours. The percentage decreases in the IOP is calculated using the initial value.

Row | Structure (SMILES) | EC50 (Guinea pig atrium) [µg/mL] | IOP-Lowering Effect, % decrease in IOP [1] | IOP-Lowering Effect, Duration [1] | further results
1 | C=C[C@@]1(C)CC(=O)[C@]2(O)[C@@]3(C)[C@@H](O)CCC(C)(C)[C@@H]3[C@H](OC(=O)CN3CCCCC3)[C@H](O)[C@@]2(C)O1 [drawing 36, reference compound] | 1.8 (≈ 3.65 µM) |  |  | 
2 | C=C[C@@]1(C)CC(=O)[C@]2(O)[C@@]3(C)[C@@H](O)CCC(C)(C)[C@@H]3[C@H](OC(=O)CCN(C)C)[C@H](OC(=O)COC)[C@@]2(C)O1 [CO(CH2)2 N(CH3)2.2HCl, COCH2 OCH3, 1α,9α-Dihydroxy-6β-(3-N,N-dimethylamino-propionyloxy)-8,13-epoxy-7β-methoxy-acetoxy-labd-14-en-11-one] | 0.024 |  |  | 
3 | C=C[C@@]1(C)CC(=O)[C@]2(O)[C@@]3(C)[C@@H](O)CCC(C)(C)[C@@H]3[C@H](OC(=O)COC)[C@H](OC(=O)CCN(C)C)[C@@]2(C)O1 [COCH2 OCH3, CO(CH2)2 NMe2.HCl, 1α,9α-Dihydroxy-7β-(3-N,N-dimethylamino-propionyloxy)-8,13-epoxy-6β-methoxyacetoxy-labd-14-en-11-one] | 0.77 |  |  | 
4 | C=C[C@@]1(C)CC(=O)[C@]2(O)[C@@]3(C)[C@@H](O)CCC(C)(C)[C@@H]3[C@H](OC(=O)CCN3CCCCC3)[C@H](OC(=O)COc3ccccc3)[C@@]2(C)O1 |  | 31% | 300 | 
5 | C=C[C@@]1(C)CC(=O)[C@]2(O)[C@@]3(C)[C@@H](O)CCC(C)(C)[C@@H]3[C@H](OC(=O)CN3CCCCC3)[C@H](O)[C@@]2(C)O1 [drawing 41, reference compound] |  | Not active |  | 
6 | C=C[C@@]1(C)CC(=O)[C@]2(O)[C@@]3(C)[C@@H](O)CCC(C)(C)[C@@H]3[C@H](OC(=O)CCN3CCOCC3)[C@H](O)[C@@]2(C)O1 [reference compound] |  |  |  | Guinea pig atrium EC50 (Guinea pig atrium): Not active
7 | C=C[C@@]1(C)CC(=O)[C@]2(O)[C@@]3(C)[C@@H](O)CCC(C)(C)[C@@H]3[C@H](OC(=O)CCN3CCN(C)CC3)[C@H](OC(=O)COCC)[C@@]2(C)O1 |  | 32% | > 360 | 
8 | C=C[C@@]1(C)CC(=O)[C@]2(O)[C@@]3(C)[C@@H](O)CCC(C)(C)[C@@H]3[C@H](OC(=O)CCN3CCOCC3)[C@H](OC(=O)COCC)[C@@]2(C)O1 [drawing 39] |  | 31% | > 360 | 
9 | C=C[C@@]1(C)CC(=O)[C@]2(O)[C@@]3(C)[C@@H](O)CCC(C)(C)[C@@H]3[C@H](OC(=O)CCN3CCOCC3)[C@H](OC(=O)COCC)[C@@]2(C)O1 [drawing 34] | 0.044 (≈ 0.0739 µM) |  |  | 
